These results are taken from patent US4595688A, “Hexahydropyrrolo[2,1-a]isoquinoline derivatives and antidepressant use thereof” (priority 1984, dated 1986).

Read-outs that look alike come from different tables or passages of the source. Where only a bound is given, the exact number is not on record here.

The subject of the test is depressant effects of tetrabenazine (TBZ). The test can be described thus: tetrabenazine (TBZ) antagonism assay in mice: exploratory activity (EA) and reversal of ptosis (Pt). The test is classed as in vivo. To be noted: for ED50: Mus musculus, ip; for percent inhibition at a certain dose, EA (exploratory activity): TBZ 32 mg/kg i.p. Here is the method:
The utility of the novel compounds of this patent is based on a standard test for antidepressant agents involving antagonism of the depressant effects of tetrabenazine (TBZ). This is the "classical" tetrabenazine antagonism assay described in U.S. Pat. No. 3,787,577. In this test, mice are injected with a test compound 30 minutes prior to the injection of 32 mg/kg i.p. of TBZ, a drug which decreases normal exploratory activity and induces ptosis. After 30 minutes, the mice are tested for two parameters: the presence of normal exploratory activity (EA) and reversal of ptosis (Pt). A control group of mice is given only 32 mg/kg i.p. of TBZ. The biological activity of the novel compounds of this invention may be understood by some representative, nonlimiting examples, presented in Tables I and II.
Tables I lists the compounds tested by a compound number, structural formula, HX or acid addition salt form in which the compound was tested, test data, and internal code number (McN No.). Table II names the various Table I compounds.
*ED50 given in mg/kg for each parameter (except for percent
inhibition at a certain dose in mg/kg, given for four examples: XLIV, XLV

Setting [1] is: mice, i.p., compound 30 minutes prior to 32 mg/kg i.p. TBZ, reversal of ptosis, read-out: TBZ ED50, Pt (reversal of ptosis).
Setting [2] is: mice, i.p., compound 30 minutes prior to 32 mg/kg i.p. TBZ, normal exploratory activity, read-out: TBZ ED50, EA (exploratory activity).
The mark [3] stands for this setting: read-out: TBZ ED50, EA (exploratory activity).
Where [4] appears, read: read-out: TBZ ED50, Pt (reversal of ptosis).
[5] abbreviates: mice, i.p., compound 30 minutes prior to 32 mg/kg i.p. TBZ, normal exploratory activity.
The mark [6] stands for this setting: mice, i.p., compound 30 minutes prior to 32 mg/kg i.p. TBZ, reversal of ptosis.

On to `Oc1cccc([C@@H]2CN3CCC[C@H]3c3ccccc32)c1` (relative stereo) [XLIV, 3-(1,2,3,5,6,10bα-Hexahydropyrrolo[2,1-a]isoquinolin-6α-yl)phenol], for which, under setting [1], the ED50 (in general, the midpoint of the dose-response relation) was determined as 3.1 mg/kg. Further, for the setting “mice, i.p., @ 30 mg/kg”, the “percent inhibition at a certain dose, EA (exploratory activity)” value is reported as 37%.
For the compound `C[C@]12CCCN1C[C@@H](c1ccc(F)cc1)c1ccc(F)cc12` (relative stereo) [L, 9-Fluoro-6α-(4-fluorophenyl)-1,2,3,5,6,10b-hexahydro-10bβ-methylpyrrolo[2,1-a]isoquinoline], the 50% effective dose (ED50) turned out to be 6.1 mg/kg under setting [2] and 5.6 mg/kg under setting [1].
The like results for `c1ccc([C@@H]2CN3CCC[C@@H]3c3ccccc32)cc1` (relative stereo) [Xb, [6α,10bβ]-1,2,3,5,6,10b-Hexahydro-6-phenyl-pyrrolo[2,1-a]isoquinoline] were, in that order, 0.34 mg/kg and 0.07 mg/kg.
For `Oc1ccc([C@@H]2CN3CCC[C@@H]3c3ccccc32)cc1O` (relative stereo) [XXXV, 4-(1,2,3,5,6,10bβ-Hexahydropyrrolo[2,1-a]isoguinolin-6α-yl)benzene-1,2-diol] the same measures were 1.4 mg/kg and 0.13 mg/kg.
The like results for `COc1cc2c(cc1OC)[C@H]1CCCN1C[C@H]2c1ccccc1` (relative stereo) [XXVII, [6α,10bβ]-1,2,3,5,6,10b-Hexahydro-8,9-dimethoxy-6-phenylpyrrolo[2,1-a]isoquinoline] were, in that order, 17 mg/kg and 7.2 mg/kg.
`Nc1ccc([C@@H]2CN3CCC[C@H]3c3ccccc32)cc1` (relative stereo) [XLVIII, 4-(1,2,3,5,6,10bα-Hexahydropyrrolo[2,1-a]isoquinoline-6α-yl)benzenamine]: the ED50 was determined as 1.4 mg/kg under setting [2] and 0.41 mg/kg under setting [1].
Take `Clc1ccc([C@@H]2CN3CCC[C@@H]3c3ccccc32)cc1` (relative stereo) [XXIX, [6α,10bβ]-6-(4-Chlorophenyl)-1,2,3,5,6,10b-hexahydropyrrolo[2,1-a]isoquinoline]: the ED50 runs as follows: under setting [3], 0.27 mg/kg; under setting [4], 0.13 mg/kg.
Consider `OC1(c2ccccc2)CN2CCCC2c2ccccc21` (single isomer, unassigned) [XXXIV, 1,2,3,5,6,10b-Hexahydro-6-phenylpyrrolo[2,1-a]isoquinolin-6-ol], for which the “TBZ ED50, EA (exploratory activity)” value under setting [5] amounted to 8.4 mg/kg. Moreover, under setting [6], the “TBZ ED50, Pt (reversal of ptosis)” value stood at 1.6 mg/kg.
For `Oc1ccc([C@@H]2CN3CCC[C@H]3c3ccccc32)cc1O` (relative stereo) [XXXVII, 4-(1,2,3,5,6,10bα-Hexahydropyrrolo[2,1-a]isoquinolin-6a-yl)-1,2-benzenediol], the ED50 was 30 mg/kg under setting [2] and 1.8 mg/kg under setting [1].
The like results for `COc1ccc([C@@H]2CN3CCC[C@@H]3c3ccccc32)cc1` (relative stereo) [XXXIII, 1,2,3,5,6,10bβ-Hexahydro-6α-(4-methoxyphenyl)pyrrolo[2,1-a]isoquinoline] were, in that order, 7 mg/kg and 0.19 mg/kg.
For `Oc1cc2c(cc1O)[C@H]1CCCN1C[C@H]2c1ccccc1` (relative stereo) [XXVI, [6α,10bβ]-1,2,3,5,6,10b-Hexahydro-8,9-dihydroxy-6-phenylpyrrolo[2,1-a]isoquinoline] the same measures were 0.87 mg/kg and 0.33 mg/kg.
On to `COc1cccc2c1[C@H](c1ccccc1)CN1CCC[C@H]21` (relative stereo) [XLVII, 1,2,3,5,6,10bβ-Hexahydro-7-methoxy-6α-phenylpyrrolo[2,1-a]isoquinoline], for which the 50% effective dose (ED50) runs as follows: under setting [3], 2.8 mg/kg; under setting [4], about 6.5 mg/kg.
Consider `COc1ccc2c(c1)[C@@H]1CCCN1C[C@H]2c1ccccc1` (relative stereo) [XXXIX, 1,2,3,5,6,10bα-Hexahydro-9-methoxy-6α-phenylpyrrolo[2,1-a]isoquionline], for which the ED50 is about 40 mg/kg under setting [2] and 8 mg/kg under setting [1].
For `Oc1cccc([C@@H]2CN3CCC[C@@H]3c3ccccc32)c1` (relative stereo) [Compound XLI, 3-(1,2,3,5,6,10bβ-Hexahydropyrrolo[2,1-a]isoquinolin-6α-yl)phenol], the ED50 was over 10 mg/kg under setting [2] and 0.11 mg/kg under setting [1].
For `Clc1ccc([C@@H]2CN3CCC[C@H]3c3cc(Cl)ccc32)cc1` (relative stereo) [Compound XLII, [6α,10bα]-9-Chloro-6-(4-chlorophenyl)-1,2,3,5,6,10b-hexahydropyrrolo[2,1-a]isoquinoline], the ED50 by setting is: under setting [2], 100 mg/kg; under setting [1], 37 mg/kg.
For `OC1(c2ccccc2)CN2CCCC2c2ccccc21` (single isomer, unassigned) [XLIII, 1,2,3,5,6,10b-Hexahydro-6-phenylpyrrolo[2,1-a]isoquinolin-6-ol], the “TBZ ED50, EA (exploratory activity)” value under setting [5] is given as 33 mg/kg. Also, the “TBZ ED50, Pt (reversal of ptosis)” value under setting [6] came out at 5.0 mg/kg.
On to `Clc1ccc([C@@H]2CN3CCC[C@H]3c3ccccc32)cc1` (relative stereo) [XXX, 6α-(4-Chlorophenyl)-1,2,3,5,6,10bα-hexahydropyrrolo[2,1-a]isoquinoline], for which the 50% effective dose (ED50) by setting is: under setting [3], 8.1 mg/kg; under setting [4], 5.4 mg/kg.
Regarding `C[C@@]1(c2ccccc2)CN2CCC[C@H]2c2ccccc21` (relative stereo) [XLVI, 1,2,3,5,6,10bα-Hexahydro-6-methyl-6α-phenylpyrrolo[2,1-a]isoquinoline], the ED50 was 22.5 mg/kg under setting [2] and 16 mg/kg under setting [1].
With `FC1(c2ccccc2)CN2CCCC2c2ccccc21` (stereo not drawn) [LIII, 6α-Fluoro-1,2,3,5,6,10bα-hexahydro-6-phenylpyrrolo[2,1-a]isoquinoline], the ED50 under setting [4] turned out to be 1.2 mg/kg. Besides, for the setting “mice, i.p., @ 40 mg/kg”, the “percent inhibition at a certain dose, EA (exploratory activity)” value turned out to be 60%.
Regarding `FC(F)(F)c1cccc([C@@H]2CN3CCC[C@@H]3c3ccccc32)c1` (relative stereo) [XLIX, 1,2,3,5,6,10bβ-Hexahydro-6α-[(3-trifluoromethyl)phenyl]-pyrrolo[2,1-a]isoquinoline], the median effective dose (ED50) was found to be 1.2 mg/kg under setting [2] and 0.43 mg/kg under setting [1].
The like results for `O=[N+]([O-])c1ccc([C@@H]2CN3CCC[C@@H]3c3ccccc32)cc1` (relative stereo) [XXXVIII, 1,2,3,5,6,10bβ-hexahydro-6α-(4-nitrophenyl)-pyrrolo[2,1-a]isoquinoline] were, in that order, 0.51 mg/kg and 0.15 mg/kg.
For `COc1ccc([C@@H]2CN3CCC[C@H]3c3ccccc32)cc1` (relative stereo) [XXXI, 1,2,3,5,6,10bα-Hexahydro-6α-(4-methoxyphenyl)pyrrolo[2,1-a]isoquinoline] the same measures were about 60 mg/kg and 3 mg/kg.
With `c1ccc2c(c1)[C@H](C1CCCCC1)CN1CCC[C@H]21` (relative stereo) [XXVIII, [6α,10β]-6-Cyclohexyl-1,2,3,5,6,10b-hexahydropyrrolo[2,1-a]isoquinoline], the ED50 by setting is: under setting [2], 6.4 mg/kg; under setting [1], 1.9 mg/kg.
The like results for `C[C@]12CCCN1C[C@@H](c1ccccc1)c1ccccc12` (relative stereo) [IVb, [6α,10bβ]-1,2,3,5,6,10b-Hexahydro-10b-methyl-6-phenylpyrrolo[2,1-a]isoquinoline] were, in that order, 9.2 mg/kg and 3.8 mg/kg.
The like results for `Clc1ccc([C@@H]2CN3CCC[C@@H]3c3cc(Cl)ccc32)cc1` (relative stereo) [XXXII, [6α,10bβ]-9-Chloro-6-(4-chlorophenyl)-1,2,3,5,6,10b-hexahydropyrrolo[2,1-a]isoquinoline] were, in that order, 37 mg/kg and 4 mg/kg.
